One block for each molecule: values may come before it.
Experiments:
[1] = Cytotoxicity against human L02 cells assessed as reduction in cell viability incubated for 24 hrs by MTT assay; format: toxicity, cell-based
[2] = tested on: Mus musculus; assay: Anti-hyperuricemic activity against hypoxanthine and oteracil potassium induced hyperuricemia in Kunming mouse model assessed as uric acid level at 5 mg/kg, IG administered daily (reference value: 631.6 +/- 103.1 uM); format: functional
[3] = tested on: Mus musculus; assay: Anti-hyperuricemic activity against hypoxanthine and oteracil potassium induced hyperuricemia in Kunming mouse model assessed as total bilirubin level at 5 mg/kg, IG administered daily (reference value: 12.05 +/- 4.92 uM); format: functional
[4] = tested on: Mus musculus; assay: Anti-hyperuricemic activity against hypoxanthine and oteracil potassium induced hyperuricemia in Kunming mouse model assessed as blood urea nitrogen level at 5 mg/kg, IG administered daily (reference value: 53.09 +/- 1.937 mg/dl); format: functional
[5] = tested on: Mus musculus; assay: Anti-hyperuricemic activity against hypoxanthine and oteracil potassium induced hyperuricemia in Kunming mouse model assessed as creatinine level at 5 mg/kg, IG administered daily (reference value: 59.12 +/- 7.198 uM); format: functional
[6] = biological target: Xanthine dehydrogenase/oxidase (Homo sapiens, UniProt P47989); assay: Inhibition of xanthine oxidase (unknown origin) at 10 uM relative to control
[7] = tested on: Mus musculus; assay: Anti-hyperuricemic activity against hypoxanthine and oteracil potassium induced hyperuricemia in Kunming mouse model assessed as alanine aminotransferase level at 5 mg/kg, IG administered daily (reference value: 28.05 +/- 8.478 U/L); format: functional
[8] = Tmax in rat at 1 mg/kg, iv measured after 24 hrs; format: ADME, organism-based; details: in vivo
[9] = Elimination half life in rat at 3 mg/kg, po measured after 24 hrs; format: ADME, organism-based; details: in vivo, read-out: beta t1/2 (converted)
[10] = Oral bioavailability in rat at 3 mg/kg measured after 24 hrs; format: ADME, organism-based; details: in vivo
[11] = Tmax in rat at 3 mg/kg, po measured after 24 hrs; format: ADME, organism-based; details: in vivo
[12] = AUC(0 to t) in rat at 3 mg/kg, po measured after 24 hrs; format: ADME, organism-based; design: dose 3 mg/kg, time 24 hrs, route po; details: in vivo
[13] = Elimination half life in rat at 1 mg/kg, iv measured after 24 hrs; format: ADME, organism-based; details: in vivo, read-out: beta t1/2 (converted)
[14] = Cmax in rat at 3 mg/kg, po measured after 24 hrs; format: ADME, organism-based; design: time 24 hrs, dose 3 mg/kg, route po; details: in vivo
[15] = AUC(0 to t) in rat at 1 mg/kg, iv measured after 24 hrs; format: ADME, organism-based; design: dose 1 mg/kg, time 24 hrs, route iv; details: in vivo
[16] = Volume of distribution in rat at 1 mg/kg, iv measured after 24 hrs; format: ADME, organism-based; details: in vivo
[17] = Cmax in rat at 1 mg/kg, iv measured after 24 hrs; format: ADME, organism-based; design: time 24 hrs, dose 1 mg/kg, route iv; details: in vivo
[18] = AUC(0 to infinity) in rat at 3 mg/kg, po measured after 24 hrs; format: ADME, organism-based; design: dose 3 mg/kg, time 24 hrs, route po; details: in vivo
[19] = AUC(0 to infinity) in rat at 1 mg/kg, iv measured after 24 hrs; format: ADME, organism-based; design: dose 1 mg/kg, time 24 hrs, route iv; details: in vivo
[20] = Clearance in rat at 1 mg/kg, iv measured after 24 hrs; format: ADME, organism-based; details: in vivo

Chain of Xanthine dehydrogenase/oxidase (P47989 whole entry): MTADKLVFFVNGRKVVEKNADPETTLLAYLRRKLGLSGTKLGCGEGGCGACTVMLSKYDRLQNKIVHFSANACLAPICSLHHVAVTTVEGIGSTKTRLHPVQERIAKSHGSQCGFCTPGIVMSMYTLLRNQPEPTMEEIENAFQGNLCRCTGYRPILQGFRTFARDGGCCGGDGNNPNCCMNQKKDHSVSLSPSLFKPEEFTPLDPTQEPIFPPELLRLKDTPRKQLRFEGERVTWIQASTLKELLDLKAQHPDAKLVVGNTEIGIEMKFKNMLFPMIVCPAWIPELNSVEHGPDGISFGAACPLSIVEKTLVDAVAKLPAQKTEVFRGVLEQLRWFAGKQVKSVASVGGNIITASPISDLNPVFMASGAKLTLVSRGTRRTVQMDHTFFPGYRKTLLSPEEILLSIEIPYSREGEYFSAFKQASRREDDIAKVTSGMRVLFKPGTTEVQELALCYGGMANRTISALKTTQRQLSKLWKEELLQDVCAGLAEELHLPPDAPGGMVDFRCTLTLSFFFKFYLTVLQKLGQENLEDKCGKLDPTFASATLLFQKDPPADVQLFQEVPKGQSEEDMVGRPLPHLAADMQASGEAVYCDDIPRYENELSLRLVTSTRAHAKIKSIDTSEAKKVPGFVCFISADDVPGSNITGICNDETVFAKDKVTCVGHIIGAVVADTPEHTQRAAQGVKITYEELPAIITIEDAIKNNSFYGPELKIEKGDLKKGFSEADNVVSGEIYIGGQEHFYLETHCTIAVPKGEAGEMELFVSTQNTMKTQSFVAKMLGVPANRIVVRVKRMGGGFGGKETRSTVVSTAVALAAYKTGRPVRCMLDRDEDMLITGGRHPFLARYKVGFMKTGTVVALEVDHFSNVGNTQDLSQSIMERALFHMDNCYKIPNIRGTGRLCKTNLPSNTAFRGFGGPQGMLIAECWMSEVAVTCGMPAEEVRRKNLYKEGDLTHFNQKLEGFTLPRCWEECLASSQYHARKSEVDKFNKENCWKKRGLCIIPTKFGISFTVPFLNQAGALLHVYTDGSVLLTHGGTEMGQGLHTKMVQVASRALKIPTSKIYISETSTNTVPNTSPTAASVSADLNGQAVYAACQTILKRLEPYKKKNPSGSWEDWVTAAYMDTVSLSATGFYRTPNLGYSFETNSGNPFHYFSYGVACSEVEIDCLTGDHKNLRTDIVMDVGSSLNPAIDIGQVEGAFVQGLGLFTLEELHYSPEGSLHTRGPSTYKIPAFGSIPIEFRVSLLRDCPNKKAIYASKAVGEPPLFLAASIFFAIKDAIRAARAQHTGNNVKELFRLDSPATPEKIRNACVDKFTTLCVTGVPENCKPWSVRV

Structure (SMILES): CCCCS(=O)(=O)Oc1ccc(/C=C/C(=O)Nc2ccccc2C)cc1OC
CC50 at 24 h [1]: 56.1 µM

Structure (SMILES): COC(=O)/C=C/c1ccc(OS(=O)(=O)c2ccc(Cl)cc2)c(OC)c1
CC50 at 24 h [1]: 99.5 µM

Structure (SMILES): CCCCS(=O)(=O)Oc1ccc(/C=C/C(=O)Nc2ccccc2Br)cc1OC
CC50 at 24 h [1]: 5 µM

Structure (SMILES): COc1cc(/C=C/C(=O)OCC(C)C)ccc1OS(=O)(=O)c1ccc(Cl)cc1
CC50 at 24 h [1]: 102 µM

Structure (SMILES): Oc1ncnc2[nH]ncc12 [ALLOPURINOL]
CC50 at 24 h [1]: 6.84 µM
Activity [2]: 309.2 µM
Activity [3]: 10.36 µM
Activity [4]: 43.64 mg/dL
Activity [5]: 71.97 µM
inhibition at 10 µM [6]: 45.6%
Activity [7]: 32.11 U/L

Structure (SMILES): COc1cc(/C=C/C(=O)Nc2ccc(I)cc2)ccc1OS(=O)(=O)c1ccc(Cl)cc1
CC50 at 24 h [1]: 39.4 µM

Structure (SMILES): COc1cc(/C=C/C(=O)Nc2cccc(C)c2)ccc1OS(=O)(=O)c1ccc(Cl)cc1
CC50 at 24 h [1]: 73.5 µM
Activity [2]: 552.9 µM
Activity [3]: 8.296 µM
Activity [4]: 33.45 mg/dL
Activity [5]: 45.88 µM
Activity [7]: 25.21 U/L

Structure (SMILES): CCCCS(=O)(=O)Oc1ccc(/C=C/C(=O)Nc2cccc(C)c2)cc1OC
CC50 at 24 h [1]: 33.6 µM

Structure (SMILES): CCCCOC(=O)/C=C/c1ccc(OS(=O)(=O)CCCC)c(OC)c1
CC50 at 24 h [1]: 115 µM

Tmax [8]: 6 min
half-life [9]: 79.2 min
bioavailability [10]: 63.7%
Tmax [11]: 8.34 min
AUC(0-t) at 24 h [12]: 1620 ng·h/mL
half-life [13]: 34.2 min
Cmax [14]: 1030 ng/mL
AUC(0-t) at 24 h [15]: 847 ng·h/mL
Vd [16]: 0.996 L/kg
Cmax [17]: 1930 ng/mL
AUC(0-inf) [18]: 1640 ng·h/mL
AUC(0-inf) [19]: 851 ng·h/mL
clearance [20]: 19.8 mL/min/kg
Structure (SMILES): CCCCS(=O)(=O)Oc1ccc(/C=C/C(=O)OCC)cc1OC
CC50 at 24 h [1]: 14.4 µM
Activity [2]: 295 µM
Activity [3]: 8.557 µM
Activity [4]: 30.48 mg/dL
Activity [5]: 34.38 µM
Activity [7]: 29.23 U/L

Structure (SMILES): CCOC(=O)/C=C/c1ccc(OS(=O)(=O)c2ccc(Cl)cc2)c(OC)c1
CC50 at 24 h [1]: 137 µM

Structure (SMILES): CCCCS(=O)(=O)Oc1ccc(/C=C/C(=O)OC)cc1OC
CC50 at 24 h [1]: 208 µM

Structure (SMILES): CCCCS(=O)(=O)Oc1ccc(/C=C/C(=O)Nc2ccc(Cl)cc2)cc1OC
CC50 at 24 h [1]: 81.2 µM

Structure (SMILES): CCCCS(=O)(=O)Oc1ccc(/C=C/C(=O)OCCC)cc1OC
CC50 at 24 h [1]: 61.8 µM

Structure (SMILES): CCCCOC(=O)/C=C/c1ccc(OS(=O)(=O)c2ccc(Cl)cc2)c(OC)c1
CC50 at 24 h [1]: 14 µM

Structure (SMILES): CCCCS(=O)(=O)Oc1ccc(/C=C/C(=O)Nc2ccc(C)cc2)cc1OC
CC50 at 24 h [1]: 26.8 µM

Structure (SMILES): CCCCS(=O)(=O)Oc1ccc(/C=C/C(=O)Nc2ccccc2)cc1OC
CC50 at 24 h [1]: 3.32 µM

Structure (SMILES): CCCCS(=O)(=O)Oc1ccc(/C=C/C(=O)Nc2ccc(CC)cc2)cc1OC
CC50 at 24 h [1]: 89 µM

Structure (SMILES): CCCCS(=O)(=O)Oc1ccc(/C=C/C(=O)OCC(C)C)cc1OC
CC50 at 24 h [1]: 63.8 µM

Structure (SMILES): CCCCS(=O)(=O)Oc1ccc(/C=C/C(=O)Nc2ccccc2I)cc1OC
CC50 at 24 h [1]: 24.5 µM

Structure (SMILES): CCCOC(=O)/C=C/c1ccc(OS(=O)(=O)c2ccc(Cl)cc2)c(OC)c1
CC50 at 24 h [1]: 150 µM
